From patent publication US20250144067A1, “PERSONALIZED STARVATION THERAPY FOR CANCER” (Faeth Therapeutics, Inc., priority 2021, published 2025) come the findings set out here.

The subject of test [1] is NCI-H292 lung cancer cells. Briefly: FDA drug screening, complete media vs cholesterol-free media with simvastatin (TABLE 2). In kind it is cell-based, human. The following applies: for Cholesterol-free media + simvastatin (0.04 μM) / Complete Media: NCI-H292 cells; for Difference: >0 enhanced anti-cancer activity, about 0 neutral, <0 antagonist.
Test [2] relates to NCI-H292 lung cancer cells. Briefly: FDA drug screening, complete media vs cholesterol-free media without statin (TABLE 1). Type of test: cell-based, human. The following applies: for Difference: about 0 neutral.
Where [3] appears, read: drug in cholesterol-free media with simvastatin 0.04 μM.
Setting [4] is: complete media vs cholesterol-free media + simvastatin (0.04 μM).
[5] abbreviates: Complete minus Cholesterol-free, greater than 0 enhanced anti-cancer activity, below 0 antagonists.
Where [6] appears, read: NCI-H292 cells in cholesterol-free media without statin.
[7] abbreviates: NCI-H292 cells in complete media.
[8] abbreviates: cholesterol-free media with simvastatin 0.04 μM, FDA drug library screen (TABLE 2).
Setting [9] is: complete media, FDA drug library screen (TABLE 2).
[10] abbreviates: complete media minus cholesterol-free media + simvastatin (0.04 μM).
The mark [11] stands for this setting: FDA library drug in cholesterol-free media with simvastatin 0.04 μM.
[12] abbreviates: FDA library drug in complete media.
The mark [13] stands for this setting: NCI-H292 cells, cholesterol-free media without statin.
Setting [14] is: Complete minus Cholesterol-free, greater than 0 enhanced anti-cancer activity, below 0 antagonist.
[15] abbreviates: NCI-H292 cells, FDA drug library screen, cholesterol-free media without statin.
Setting [16] is: NCI-H292 cells, FDA drug library screen, complete media.
Where [17] appears, read: complete media minus cholesterol-free media + simvastatin.
Setting [18] is: FDA drug library screen, cholesterol-free media with simvastatin 0.04 μM.
Setting [19] is: FDA drug library screen, complete media.

Counter-ions that a name gives are not always drawn.

On to `CC(C)(C)C(=O)OCOC(=O)[C@@H]1N2C(=O)[C@@H](/N=C/N3CCCCCC3)[C@H]2SC1(C)C` [Pivmecillinam (hydrochloride)], for which the “Cholesterol-free media + simvastatin (0.04 μM)” value in test [1] (setting [3]) worked out at 1.219. In addition, the “Complete Media” value in test [1] (drug in complete media) was found to be 1.044. Further, the Difference in test [1] (setting [4]) is reported as −0.18; in test [2] (setting [5]) it was −0.49. Further, the Cholesterol-free in test [2] (setting [6]) stood at 1.646. In addition, the Complete in test [2] (setting [7]) is on record as 1.161.

Consider `CC(=O)/N=c1/sc(S(N)(=O)=O)nn1C` [Methazolamide], for which the “Cholesterol-free media + simvastatin (0.04 μM)” value in test [1] (setting [3]) is 1.441. The “Complete Media” value in test [1] (drug in complete media) was found to be 1.241. The values for the Difference in test [1] (setting [4]) and in test [2] (setting [5]) were −0.20 and −0.57, respectively. The compound also registered a Cholesterol-free in test [2] (setting [6]) of 1.478. This compound also yielded a Complete in test [2] (setting [7]) of 0.9069.

Consider `CC(C)(CO)c1cc2cc(NC(=O)C3(c4ccc5c(c4)OC(F)(F)O5)CC3)c(F)cc2n1C[C@@H](O)CO` [Tezacaftor], for which the “Cholesterol-free media + simvastatin (0.04 μM)” value in test [1] (setting [8]) is recorded as 1.227. Moreover, the “Complete Media” value in test [1] (setting [9]) was 1.187. The Difference is on record as −0.04 in test [1] (setting [10]) and −0.63 in test [2] (setting [5]). This compound gave a Cholesterol-free in test [2] (setting [6]) of 1.488. The compound also showed a Complete in test [2] (setting [7]) of 0.8597.

`COc1ccc(NC(=O)c2ccc(C(=N)N(C)C)cc2)c(C(=O)Nc2ccc(Cl)cn2)c1` [Betrixaban]: the “Cholesterol-free media + simvastatin (0.04 μM)” value in test [1] (setting [11]) was found to be 1.424. The “Complete Media” value in test [1] (setting [12]) was 0.7486. For the same compound, the Difference is on record as −0.68 in test [1] (setting [4]) and 0.45 in test [2] (complete vs cholesterol-free media, >0 enhanced anti-cancer activity, <0 antagonist). The compound also displayed a Cholesterol-free in test [2] (NCI-H292 cells, cholesterol-free media without statin, FDA drug library screen) of 0.6104. In test [2] (NCI-H292 cells, complete media, FDA drug library screen), the Complete was 1.062.

Turning to `C=CC(=O)N1CCC([C@@H]2CCNc3c(C(N)=O)c(-c4ccc(Oc5ccccc5)cc4)nn32)CC1` [Zanubrutinib], in test [1] (setting [8]), the “Cholesterol-free media + simvastatin (0.04 μM)” value came to 0.7245. Also, in test [1] (setting [9]), the “Complete Media” value came to 0.7031. Also, the Difference is −0.02 in test [1] (setting [10]) and −0.44 in test [2] (complete vs cholesterol-free media, greater than 0 enhanced anti-cancer activity, below 0 antagonists). The compound further had a Cholesterol-free in test [2] (setting [13]) of 0.7894. In test [2] (NCI-H292 cells, complete media), the Complete came to 0.3496.

For the compound Azatadine (dimaleate), the “Cholesterol-free media + simvastatin (0.04 μM)” value in test [1] (setting [8]) is listed as 1.086. In addition, in test [1] (setting [9]), the “Complete Media” value turned out to be 1.047. Also, the values for the Difference in test [1] (setting [10]) and in test [2] (setting [14]) were −0.04 and −0.16, respectively. Besides, the Cholesterol-free in test [2] (setting [15]) is 1.286. The compound further gave a Complete in test [2] (setting [16]) of 1.13.

As to Delavirdine (mesylate), the “Cholesterol-free media + simvastatin (0.04 μM)” value in test [1] (cholesterol-free media with simvastatin 0.04 μM, cell growth value in FDA drug screen) was 0.9532. Also, the Difference is listed as 0.08 in test [1] (setting [17]) and −0.10 in test [2] (setting [14]). The Cholesterol-free in test [2] (setting [15]) was determined as 1.071. In test [2] (setting [16]), the Complete worked out at 0.9729.

Turning to `COc1ccc(-c2cc(C(F)F)nn2-c2ccc(S(N)(=O)=O)cc2)cc1F` [Deracoxib], the “Cholesterol-free media + simvastatin (0.04 μM)” value in test [1] (setting [18]) is 1.651. In test [1] (setting [19]), the “Complete Media” value was 1.821. Further, the Difference in test [1] (setting [17]) is recorded as 0.17; in test [2] (setting [5]), −0.50. The Cholesterol-free in test [2] (setting [6]) stood at 1.682. Also, the Complete in test [2] (setting [7]) worked out at 1.181.

With `CC(C)OC(=O)C(C(=O)OC(C)C)=C1SC=CS1` [Malotilate], the “Cholesterol-free media + simvastatin (0.04 μM)” value in test [1] (setting [11]) came out at 1.172. Besides, the “Complete Media” value in test [1] (setting [12]) is reported as 0.8557. The Difference is −0.32 in test [1] (setting [4]) and −0.31 in test [2] (Complete minus Cholesterol-free, >0 enhanced anti-cancer activity, <0 antagonist). Further, the Cholesterol-free in test [2] (setting [13]) is on record as 1.163. In test [2] (NCI-H292 cells, complete media), this compound displayed a Complete of 0.8568.

In the case of `Cc1c(C(C)C)c(=O)n(-c2ccccc2)n1C` [Propyphenazone], the “Cholesterol-free media + simvastatin (0.04 μM)” value in test [1] (setting [18]) was 2.378. In addition, the results for the Difference in test [1] (setting [10]) and in test [2] (setting [14]) were −1.31 and −0.12, respectively. The compound further gave a Cholesterol-free in test [2] (setting [15]) of 1.128. In test [2] (setting [16]), this compound had a Complete of 1.005.

Masitinib (mesylate): the “Cholesterol-free media + simvastatin (0.04 μM)” value in test [1] (setting [18]) is given as 1.086. Moreover, the “Complete Media” value in test [1] (setting [19]) is given as 1.002. In addition, the Difference in test [1] (setting [4]) is reported as −0.08; in test [2] (setting [14]), −0.14. This compound also yielded a Cholesterol-free in test [2] (setting [15]) of 1.027. Also, the Complete in test [2] (setting [16]) turned out to be 0.8899.
